{"source": "paper PMC12431657", "about": "“Discovery and mechanistic insights of dibenzoylmethane as a broad spectrum inhibitor of coronavirus” (PLOS Pathogens, 2025)", "key": {"[1]": {"tested_on": "HCoV-OC43", "assay": "In vivo efficacy of DBM against HCoV-OC43 in suckling mice (body weight, viral RNA copies, immunofluorescence, H&E)", "design": "species or system BALB/c suckling mice", "conditions": "for Viral RNA copies (log scale), Brain / Viral RNA copies (log scale), Kidney / Viral RNA copies (log scale), Lung / Viral RNA copies (log scale), Spinal Cord: one value per mouse", "method": "Next, we characterized the therapeutic efficacy of the DBM in vivo. In this experiment, randomized 5–6-day-old suckling BALB/c mice were orally treated with DBM at concentrations of 500, 200, and 100 mpk 2 hours after being intranasally challenged with HCoV-OC43. Menstruum and VV116 were used as negative and positive controls, respectively. All the mice were sacrificed on Day 5 for organ and sample collection (Fig 4A). The body weight changes of the mice were continuously monitored during the trial. Infection with HCoV-OC43 led to body weight loss in the vehicle-treated mice on Day 5 (Fig 4B). […] The number of viral RNA copies from the brain, spinal cord, lungs, and kidneys were analysed via qRT-PCR, which targeted the HCoV-OC43 nucleocapsid gene sequence. On Day 5, the number of viral RNA copies in the vehicle-treated group reached approximately 10^12 copies in the brain, 10^9 copies in the spinal cord, 10^8 copies in the lungs, and 10^6 copies in the kidney (Fig 4C). In the mice treated with DBM at 500 mpk, the number of viral RNA copies within these organs and tissues was reduced by 1–3 logs compared with the vehicle-treated group. […] Sections of mouse brains, spinal cords, lungs, and kidneys were subjected to immunofluorescence staining with antibodies targeting HCoV-OC43 nucleocapsid proteins.\nFig 4 In vivo antiviral efficacy of DBM in 5-day-old BALB/c suckling mice infected with HCoV-OC43. A) Schematic of the experimental design for evaluating DBM in suckling mice. Each group consisted of 5-6 suckling mice. The schematic was created by the authors using Adobe Illustrator 2022. B) Body weight changes of mice during the experiment. Body weights were recorded daily and all mice were euthanised on the fifth day after infection. C) Viral RNA copies in the brains, spinal cords, lungs, and kidneys of mice collected on Day 5. After grinding and centrifuging the samples with DMEM, viral copies from the supernatants were tested by qRT-PCR. D) Viral titres in homogenised organs and tissues collected from mice on Day 5. E) Immunofluorescence staining of brain and lung sections from mice treated with different regimens. HCoV-OC43 nucleocapsid proteins were detected by immunofluorescence (green). Cell nuclei were stained with DAPI (blue). Data were statistically analyzed with Student’s T test. *: p ≤ 0.05, **: p ≤ 0.01, ***: p ≤ 0.001, ****: p ≤ 0.0001; ns, not significant. The experiments were repeated three times independently with similar results. […] No numeric values are printed in any panel, and nothing was read off the bars, points or curves.\nBALB/c mice were maintained and bred in a specific-pathogen-free (SPF) environment at the Laboratory Animal Center of Wuhan Institute of Virology, CAS. Pregnant mice with the same expected delivery date were acclimated in individually ventilated cages under standard conditions within an SPF environment. Food and water were available ad libitum. The mice were anaesthetized by isoflurane inhalation before any operation that may have caused potential discomfort. Before the experiment, suckling mice were randomly allocated into 6 distinct groups, namely, the healthy group, the vehicle group, the groups receiving DBM at 500 mg/kg (mpk) orally quaque die (QD), 200 mpk QD, and 100 mpk QD, and the group receiving VV116 at 25 mpk orally QD. Each group was comprised of 5–6 suckling mice. On the initiation day (Day 0) of the experiment, 5–6-day-old BALB/c suckling mice were intranasally infected with 1 × 10^4 TCID50 of HCoV-OC43. Two hours postinoculation, the mice were orally treated with either a placebo or varying doses of the drugs on the basis of their respective groupings as outlined earlier. This oral treatment regimen was continued for several days. The body weight changes of the mice were monitored daily. On Day 5, all the mice in each group were sacrificed for virological and histopathological analyses. […]"}, "[2]": {"tested_on": "HCoV-OC43", "assay": "Time-of-addition assay", "assay_type": "cell-based", "conditions": "for time-of-addition, viral inhibition: replicates", "method": "To obtain further insight into the stage at which DBM inhibits the replication of HCoV-OC43 and other HCoVs, RD cells were incubated with compounds, including DBM, remdesivir (RDV), and chloroquine (CQ), at different stages of viral infection. Viral RNA from the supernatant was extracted and quantitatively analysed via qRT-PCR. […] For the viral binding assay, cells were cultured in the presence or absence of DBM at different concentrations for 1 hour before being infected with HCoV-OC43 at an MOI of 50, and then were placed on ice for 2 hours for the viral particles to bind to the membrane of the host cells, followed by washing with PBS. […] In addition to binding to receptors from host cells, the spike proteins of HCoV-OC43 could also trigger membrane fusion when HCoV-OC43 spike plasmid-transfected 293T cells were seeded together with RD cells as target cells, and the addition of DBM had no effect on this process (S5C Fig). To examine whether DBM inhibits viral internalisation, cells were inoculated with HCoV-OC43 for 1 hour on ice before being treated with either DBM or DMSO, and CQ was included to prevent endosomal acidification. Subsequently, HCoV-OC43 nucleocapsid proteins were immunostained with CoraLite Plus 488 to assess viral internalisation via confocal microscopy. […] To determine whether DBM influences viral release, we quantified viral RNA both intracellularly and in the supernatant.\nTo evaluate the effects of DBM on the life cycle of HCoV-229E and HCoV-OC43, fresh culture medium containing 0.6 μM DBM, 0.1 μM remdesivir (RDV), or 10 μM chloroquine (CQ) was supplemented with preseeded cells at different time points relative to infection (entry group: 0 to –2 hours; postinfection group: 2–12 hours; and full-time group: 0 to –12 hours). DMSO served as the control. At 24 hours postinfection, the number of intracellular virus RNA copies was quantified by qRT-PCR as previously described."}}, "note": "“And” between values parts separate entries of the source, which are not always exact repeats. Equal entries are not always repeated.", "data": [{"smiles": "O=C(CC(=O)c1ccccc1)c1ccccc1", "note": "[DBM, dibenzoylmethane]", "values": [{"measurement": "Viral RNA copies (log scale), Brain", "setting": "[1]; DBM 100 mpk oral QD, Day 5", "value": "10.75 and 11.25 and 9.46 and 11.43 and 10.91 and 11.34"}, {"measurement": "Viral RNA copies (log scale), Kidney", "setting": "[1]; DBM 100 mpk oral QD, Day 5", "value": "4.46 and 4.97 and 5.51 and 4.16 and 5.82 and 6.00"}, {"measurement": "Viral RNA copies (log scale), Lung", "setting": "[1]; DBM 100 mpk oral QD, Day 5", "value": "5.86 and 6.10 and 6.32 and 5.21 and 6.78 and 7.01"}, {"measurement": "Viral RNA copies (log scale), Spinal Cord", "setting": "[1]; DBM 100 mpk oral QD, Day 5", "value": "6.20 and 7.58 and 5.38 and 6.52 and 6.60 and 6.93"}, {"measurement": "Viral RNA copies (log scale), Brain", "setting": "[1]; DBM 200 mpk oral QD, Day 5", "value": "11.00 and 7.97 and 8.87 and 10.9 and 11.19"}, {"measurement": "Viral RNA copies (log scale), Kidney", "setting": "[1]; DBM 200 mpk oral QD, Day 5", "value": "3.29 and 5.31 and 4.03 and 3.52 and 4.72"}, {"measurement": "Viral RNA copies (log scale), Lung", "setting": "[1]; DBM 200 mpk oral QD, Day 5", "value": "5.84 and 6.05 and 5.32 and 4.74 and 6.24"}, {"measurement": "Viral RNA copies (log scale), Spinal Cord", "setting": "[1]; DBM 200 mpk oral QD, Day 5", "value": "7.21 and 4.77 and 4.18 and 5.72 and 5.07"}, {"measurement": "weight loss during the experiment", "setting": "[1]; DBM 500, 200, 100 mpk, VV116 25 mpk", "value": "did not experience weight loss"}, {"measurement": "Viral RNA copies (log scale), Brain", "setting": "[1]; DBM 500 mpk oral QD, Day 5", "value": "7.30 and 7.20 and 10.02 and 9.11"}, {"measurement": "Viral RNA copies (log scale), Kidney", "setting": "[1]; DBM 500 mpk oral QD, Day 5", "value": "5.15 and 4.76 and 4.30 and 4.17"}, {"measurement": "Viral RNA copies (log scale), Lung", "setting": "[1]; DBM 500 mpk oral QD, Day 5", "value": "6.62 and 5.77 and 7.8 and 5.49"}, {"measurement": "Viral RNA copies (log scale), Spinal Cord", "setting": "[1]; DBM 500 mpk oral QD, Day 5", "value": "7.86 and 7.12 and 7.13 and 6.92"}, {"measurement": "reduction of viral RNA copies in organs and tissues compared with the vehicle-treated group", "setting": "[1]; DBM 500 mpk, Day 5, brain, spinal cord, lungs, kidneys", "value": "1–3 logs"}, {"measurement": "Body weight (Fig4B)", "setting": "[1]; Diben-100mpk, day 0, individual mice, 100 mg/kg", "value": "106.0 and 99.6 and 102.4 and 92.2 and 88.6 and 111.2"}, {"measurement": "Body weight (Fig4B)", "setting": "[1]; Diben-100mpk, day 1, individual mice, 100 mg/kg", "value": "104.0 and 113.7 and 124.8 and 125.0 and 120.9 and 107.3"}, {"measurement": "Body weight (Fig4B)", "setting": "[1]; Diben-100mpk, day 2, individual mice, 100 mg/kg", "value": "129.4 and 142.0 and 134.3 and 116.8 and 125.0 and 145.3"}, {"measurement": "Body weight (Fig4B)", "setting": "[1]; Diben-100mpk, day 3, individual mice, 100 mg/kg", "value": "151.0 and 158.2 and 143.3 and 162.5 and 135.0 and 139.2"}, {"measurement": "Body weight (Fig4B)", "setting": "[1]; Diben-100mpk, day 4, individual mice, 100 mg/kg", "value": "155.1 and 164.8 and 182.5 and 163.5 and 153.3 and 179.2"}, {"measurement": "Body weight (Fig4B)", "setting": "[1]; Diben-100mpk, day 5, individual mice, 100 mg/kg", "value": "154.0 and 147.9 and 188.2 and 194.1"}, {"measurement": "Body weight (Fig4B)", "setting": "[1]; Diben-200mpk, day 0, individual mice, 200 mg/kg", "value": "111.2 and 88.7 and 105.9 and 107.7 and 103.2 and 83.4"}, {"measurement": "Body weight (Fig4B)", "setting": "[1]; Diben-200mpk, day 1, individual mice, 200 mg/kg", "value": "125.7 and 104.5 and 114.6 and 120.1 and 114.8 and 89.2"}, {"measurement": "Body weight (Fig4B)", "setting": "[1]; Diben-200mpk, day 2, individual mice, 200 mg/kg", "value": "114.8 and 130.4 and 137.3 and 125.5 and 125.0 and 98.5"}, {"measurement": "Body weight (Fig4B)", "setting": "[1]; Diben-200mpk, day 3, individual mice, 200 mg/kg", "value": "132.4 and 107.4 and 150.4 and 128.4 and 109.9 and 143.8"}, {"measurement": "Body weight (Fig4B)", "setting": "[1]; Diben-200mpk, day 4, individual mice, 200 mg/kg", "value": "124.4 and 149.1 and 155.3 and 166.7 and 150.7 and DIED"}, {"measurement": "Body weight (Fig4B)", "setting": "[1]; Diben-200mpk, day 5, individual mice, 200 mg/kg", "value": "132.2 and 156.0 and 162.7 and 162.5 and 153.8"}, {"measurement": "Body weight (Fig4B)", "setting": "[1]; Diben-500mpk, day 0, individual mice, 500 mg/kg", "value": "97.8 (2×) and 95.2 (2×) and 111.0 and 103.1"}, {"measurement": "Body weight (Fig4B)", "setting": "[1]; Diben-500mpk, day 1, individual mice, 500 mg/kg", "value": "118.9 and 116.3 and 111.0 and 105.7 (2×) and 124.2"}, {"measurement": "Body weight (Fig4B)", "setting": "[1]; Diben-500mpk, day 2, individual mice, 500 mg/kg", "value": "145.4 and 111.0 and 129.5 (2×) and 97.8 and 116.3"}, {"measurement": "Body weight (Fig4B)", "setting": "[1]; Diben-500mpk, day 3, individual mice, 500 mg/kg", "value": "118.9 and 169.2 and 132.2 and 108.4 and 102.6 and 148.0"}, {"measurement": "Body weight (Fig4B)", "setting": "[1]; Diben-500mpk, day 4, individual mice, 500 mg/kg", "value": "150.7 and DIED (2×) and 187.7 and 103.1 and 161.2"}, {"measurement": "Body weight (Fig4B)", "setting": "[1]; Diben-500mpk, day 5, individual mice, 500 mg/kg", "value": 100.4}, {"measurement": "viral loads by immunofluorescence staining of organ sections", "setting": "[1]; HCoV-OC43 nucleocapsid protein", "value": "reduced the viral loads"}, {"measurement": "damage caused by viral infection in brain and lung sections (H&E)", "setting": "[1]; oral DBM", "value": "significantly reduced the damage"}, {"measurement": "time-of-addition, viral inhibition", "setting": "[2]; Entry", "value": "44.1 and 45.1 and 75.5"}, {"measurement": "time-of-addition, viral inhibition", "setting": "[2]; Full-Time", "value": "98.8 and 98.7 (2×)"}, {"measurement": "time-of-addition, viral inhibition", "setting": "[2]; Post-Entry", "value": "79.3 and 93.6 and 93.3"}, {"measurement": "HCoV-OC43 infection, compound incubated before and during virus infection", "setting": "[2]; RD cells, 0.6 μM DBM", "value": "did not significantly inhibit"}, {"measurement": "replication of HCoV-OC43, compound added 2 hours after virus inoculation", "setting": "[2]; RD cells, 0.6 μM DBM", "value": "potently inhibited"}]}]}
